Measurements reported in patent US9409952B2, “Peptide-compound cyclization method” (Chugai Seiyaku Kabushiki Kaisha, priority 2011, dated 2016).
Where two headings read alike, the source gives them in different places. Starred links: 1 amine or outer side, 2 acyl side, 3 side chain; linkers in the order of their positions; H or OH if unused. Positions of bridges follow the written chain, without caps; N, C: chain ends. Non-standard residues stand in square brackets, D forms with d. Residues, ends and D or L forms follow the SMILES beside them. *: point of attachment. Phe(4-CF3) = N[C@@H](Cc1ccc(C(F)(F)F)cc1)C(=O)O; NMeF = CN[C@@H](Cc1ccccc1)C(=O)O; NMeI = CC[C@H](C)[C@H](NC)C(=O)O; hPhe = N[C@@H](CCc1ccccc1)C(=O)O; NMeβAla = CN(CCC(=O)[*:2])[*:1]; NMeL = CN[C@@H](CC(C)C)C(=O)O; NMeV = CN[C@H](C(=O)O)C(C)C; NMeA = CN[C@@H](C)C(=O)O; Piperidide = C1CCN(*)CC1; dNMeA = CN[C@H](C)C(=O)O; β3hA = C[C@H](N)CC(=O)O; Sar = CNCC(=O)O; tBu = CC(C)(C)*

What was measured:
[1] = Metabolic stability in human hepatic microsome; format: in vitro ADME; settings: microsomes
[2] = PAMPA (parallel artificial membrane permeability assay); format: in vitro ADME; settings: PAMPA
Procedure, shortened: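 Artificial membrane was 10% (w/v) egg lecithin plus 0.5% (w/v) cholesterol in dodecane on a PVDF filter. A 10 mM DMSO stock was added at 0.5% (v/v) to donor buffer (50 mM MOPSO, pH 6.5, 5.0% glycocholic acid). After 18 h at 37 °C, LC/MS or LC/UV gave donor and acceptor levels for Pe.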

[3] = pH 7.4, human hepatic microsome, NADPH(+), read-out: CL NADPH(+)
[4] = membrane permeation rate (Pe), 50 mM MOPSO buffer pH 6.5 with 5.0% glycocholic acid, 37° C., 18 hours, read-out: iPAMPA Pe

| Compound | microsomal CLint at 1 uM [1, 3] [µL/min/mg] | Papp at 18 hours, 50 µM [2, 4] [×10⁻⁶ cm/s] | microsomal CLint at 1 uM ([1]; human, pH 7.4, CL NADPH(+)) [µL/min/mg] | Papp at 18 hours, 50 µM ([2]; pH 6.5) [×10⁻⁶ cm/s] |
| --- | --- | --- | --- | --- |
| CC(C)C[C@H]1C(=O)N(C)[C@@H](C)C(=O)N[C@H](C(=O)N(C)[C@@H](Cc2ccccc2)C(=O)N(C)[C@@H](Cc2ccccc2)C(=O)N[C@@H](C)C(=O)N2CCCCC2)CC(=O)N(C)[C@H](C)C(=O)N(C)[C@@H](Cc2ccccc2)C(=O)N(C)CC(=O)N[C@@H]([C@@H](C)O)C(=O)N[C@@H](C)C(=O)N(C)[C@@H](C)C(=O)N1C [DP-463] ([dNMeA][NMeF][Sar]TA[NMeA][NMeL][NMeA]D[NMeF][NMeF]A-Piperidide; lactam N-9) | 10 | 3.1 |  |  |
| CC(C)C[C@H]1C(=O)N[C@@H](C(C)C)C(=O)N(C)[C@@H](Cc2ccccc2)C(=O)N(C)[C@@H](CC(C)C)C(=O)N(C)[C@@H](CC(C)C)C(=O)N[C@H](C(=O)N(C)[C@@H](Cc2ccccc2)C(=O)N(C)[C@@H](Cc2ccccc2)C(=O)N[C@@H](C)C(=O)N2CCCCC2)CC(=O)N(C)CCC(=O)N[C@@H]([C@@H](C)O)C(=O)N(C)[C@@H](C)C(=O)N1C [DP-397] ([NMeβAla]T[NMeA][NMeL]V[NMeF][NMeL][NMeL]D[NMeF][NMeF]A-Piperidide; lactam N-9) |  |  | 92 | 11 |
| CC[C@H](C)[C@H](NC(=O)[C@@H]1CC(=O)N[C@@H](Cc2ccccc2)C(=O)N(C)[C@@H](CC(C)C)C(=O)N[C@@H](C)C(=O)N(C)[C@@H](CC(C)C)C(=O)N[C@@H](COC(C)(C)C)C(=O)N(C)[C@@H](CC(C)C)C(=O)N(C)[C@@H](CC(C)C)C(=O)N[C@@H]([C@@H](C)O)C(=O)N[C@@H](Cc2ccccc2)C(=O)N(C)[C@@H](Cc2ccccc2)C(=O)N(C)[C@@H](C)C(=O)N1)C(=O)N[C@H](C(=O)N1CCCCC1)[C@@H](C)CC [DP-953] (F[NMeL]A[NMeL]S(tBu)[NMeL][NMeL]TF[NMeF][NMeA]DII-Piperidide; lactam N-12) | 8 | 0.1 |  |  |
| CC[C@H](C)[C@@H]1NC(=O)[C@H](Cc2ccccc2)NC(=O)[C@H](CC(C)C)NC(=O)[C@H](CC(C)C)NC(=O)[C@H](C)NC(=O)C[C@@H](C(=O)N2CCCCC2)NC(=O)[C@H](CC(C)C)N(C)C(=O)[C@H](Cc2ccccc2)NC(=O)[C@H](CC(C)C)NC(=O)CNC(=O)[C@H]([C@@H](C)O)NC1=O [DP-513] (ALLFITGLF[NMeL]D-Piperidide; lactam N-11) | 184 | 30 |  |  |
| CC(C)C[C@H]1C(=O)N[C@H](C(=O)N(C)[C@@H](Cc2ccccc2)C(=O)N(C)[C@@H](Cc2ccccc2)C(=O)N[C@@H](C)C(=O)N2CCCCC2)CC(=O)N(C)[C@@H](C)C(=O)N(C)[C@@H](Cc2ccccc2)C(=O)N[C@@H]([C@@H](C)O)C(=O)N(C)[C@@H](C)C(=O)N(C)[C@@H](CC(C)C)C(=O)N(C)[C@@H](CC(C)C)C(=O)N[C@@H](C(C)C)C(=O)N1C [DP-211] ([NMeA][NMeF]T[NMeA][NMeL][NMeL]V[NMeL]D[NMeF][NMeF]A-Piperidide; lactam N-9) | 178 | 3.2 |  |  |
| CC(C)C[C@H]1C(=O)N[C@@H](COC(C)(C)C)C(=O)N[C@H](C(=O)N2CCCCC2)CC(=O)N(C)CC(=O)N[C@@H]([C@@H](C)O)C(=O)N(C)[C@@H](C)C(=O)N(C)[C@@H](Cc2ccccc2)C(=O)N(C)[C@@H](Cc2ccccc2)C(=O)N1C [DP-709] ([Sar]T[NMeA][NMeF][NMeF][NMeL]S(tBu)D-Piperidide; lactam N-8) | 90 | 35 |  |  |
| C=C1CCC(=O)NCC(=O)N(C)[C@@H](C)C(=O)N[C@@H](CC(C)C)C(=O)N[C@@H](C(C)C)C(=O)N(C)[C@@H](CC(C)C)C(=O)N[C@@H](Cc2ccccc2)C(=O)N(C)[C@@H](Cc2ccccc2)C(=O)N[C@@H]([C@@H](C)CC)C(=O)N(C)[C@@H](C)C(=O)N[C@@H](CC(C)C)C(=O)N[C@@H]([C@@H](C)O)C(=O)N[C@H](C(=O)N2CCCCC2)Cc2ccc1cc2 [DP-887] | 103 | 3.9 |  |  |
| CC[C@H](C)[C@@H]1NC(=O)[C@H](Cc2ccccc2)NC(=O)[C@H](C(C)C)N(C)C(=O)CN(C)C(=O)C[C@@H](C(=O)N2CCCCC2)NC(=O)[C@H]([C@@H](C)O)NC(=O)[C@H](CC(C)C)N(C)C(=O)[C@H](Cc2ccccc2)NC(=O)[C@H](CC(C)C)N(C)C(=O)CNC(=O)[C@H](CC(C)C)NC(=O)[C@H](C)N(C)C1=O [DP-137] ([Sar][NMeV]FI[NMeA]LG[NMeL]F[NMeL]TD-Piperidide; lactam N-12) | 86 | 32 |  |  |
| CC(C)C[C@@H]1NC(=O)[C@@H](C(C)C)NC(=O)C[C@H](C)NC(=O)[C@H](CC(C)C)N(C)C(=O)[C@H](CC(C)C)N(C)C(=O)[C@H](Cc2ccc(C(F)(F)F)cc2)NC(=O)[C@H](C)N(C)C(=O)[C@H]([C@@H](C)O)NC1=O [DP-825] (cyclo(LT[NMeA][Phe(4-CF3)][NMeL][NMeL][β3hA][dV])) | 168 | 39 |  |  |
| CC(C)[C@@H]1NC(=O)[C@H](Cc2ccccc2)N(C)C(=O)[C@H](C)N(C)C(=O)[C@H]([C@@H](C)O)NC(=O)[C@H](C)N(C)C(=O)CNC(=O)[C@H](Cc2ccccc2)NC(=O)[C@@H](C)N(C)C(=O)C[C@@H](C(=O)N(C)[C@@H](Cc2ccccc2)C(=O)N(C)[C@@H](Cc2ccccc2)C(=O)N[C@@H](C)C(=O)N2CCCCC2)NC(=O)[C@H](C(C)C)N(C)C1=O [DP-504] ([dNMeA]FG[NMeA]T[NMeA][NMeF]V[NMeV]D[NMeF][NMeF]A-Piperidide; lactam N-10) | 216 | 31 |  |  |
| CC[C@H](C)[C@@H]1NC(=O)[C@H](Cc2ccccc2)N(C)C(=O)[C@H]([C@@H](C)O)NC(=O)[C@H](C(C)C)N(C)C(=O)[C@H](CC(C)C)NC(=O)[C@H](CC(C)C)N(C)C(=O)CCN(C)C(=O)C[C@@H](C(=O)N2CCCCC2)NC(=O)[C@H](C)NC(=O)[C@H](C)N(C)C(=O)[C@H](Cc2ccccc2)NC1=O [DP-238] ([NMeβAla][NMeL]L[NMeV]T[NMeF]IF[NMeA]AD-Piperidide; lactam N-11) | 129 | 19 |  |  |
| CC(C)C[C@H]1C(=O)N(C)[C@@H](CC(C)C)C(=O)N[C@H](C(=O)N2CCCCC2)CC(=O)N[C@H](C)C(=O)N(C)[C@@H](Cc2ccccc2)C(=O)N(C)[C@@H](CC(C)C)C(=O)N[C@@H]([C@@H](C)O)C(=O)N1C [DP-721] ([dA][NMeF][NMeL]T[NMeL][NMeL]D-Piperidide; lactam N-7) | 915 | 49 |  |  |
| CC(C)C[C@@H]1NC(=O)C[C@@H](C(=O)N2CCCCC2)NC(=O)[C@H](CC(C)C)N(C)C(=O)[C@H](CC(C)C)NC(=O)[C@H](CC(C)C)N(C)C(=O)[C@H]([C@@H](C)O)NC(=O)CN(C)C1=O [DP-726] (L[Sar]T[NMeL]L[NMeL]D-Piperidide; lactam N-7) | 75 | 17 |  |  |
| CC(C)C[C@H]1C(=O)N(C)[C@@H](C)C(=O)N[C@@H]([C@@H](C)O)C(=O)N(C)[C@@H](C)C(=O)N(C)[C@@H](Cc2ccccc2)C(=O)N(C)[C@@H](C)C(=O)N[C@@H](C)C(=O)N(C)[C@@H](C)C(=O)N(C)[C@@H](C)C(=O)N[C@H](C(=O)N(C)[C@@H](Cc2ccccc2)C(=O)N[C@@H](C)C(=O)N2CCCCC2)CC(=O)N(C)[C@H](C)C(=O)N1C [DP-444] ([dNMeA][NMeL][NMeA]T[NMeA][NMeF][NMeA]A[NMeA][NMeA]D[NMeF]A-Piperidide; lactam N-11) | 3 | 0.72 |  |  |
| CC(C)C[C@@H]1NC(=O)[C@@H]2CCCN2C(=O)[C@H](Cc2ccccc2)N(C)C(=O)[C@H](C)N(C)C(=O)[C@H]([C@@H](C)O)NC(=O)[C@@H](C(C)C)NC(=O)C[C@@H](C(=O)N2CCCCC2)NC(=O)[C@H](CC(C)C)N(C)C(=O)[C@H](C)N(C)C(=O)[C@H](CCc2ccccc2)NC(=O)[C@H](C(C)C)N(C)C1=O [DP-732] ([dV]T[NMeA][NMeF]PL[NMeV][hPhe][NMeA][NMeL]D-Piperidide; lactam N-11) | 57 | 26 |  |  |
| CC[C@H](C)[C@H]1C(=O)N[C@@H](COC(C)(C)C)C(=O)N[C@H](C(=O)N2CCCCC2)CC(=O)N(C)[C@@H](C)C(=O)N(C)[C@@H](Cc2ccccc2)C(=O)N(C)CC(=O)N(C)[C@@H](CC(C)C)C(=O)N[C@@H]([C@@H](C)O)C(=O)N(C)[C@@H](C)C(=O)N(C)[C@@H](CC(C)C)C(=O)N1C [DP-138] ([NMeA][NMeF][Sar][NMeL]T[NMeA][NMeL][NMeI]S(tBu)D-Piperidide; lactam N-10) | 48 | 31 |  |  |
| CC(C)C[C@H]1C(=O)N[C@@H](Cc2ccccc2)C(=O)N(C)[C@@H](C(C)C)C(=O)N[C@@H]([C@@H](C)O)C(=O)N[C@H](C(=O)N(C)[C@@H](Cc2ccccc2)C(=O)N(C)[C@@H](Cc2ccccc2)C(=O)N[C@@H](C)C(=O)N2CCCCC2)CC(=O)N(C)CCC(=O)N[C@@H](C(C)C)C(=O)N(C)[C@@H](CC(C)C)C(=O)N(C)[C@@H](Cc2ccccc2)C(=O)NCC(=O)N1C [DP-298] ([NMeβAla]V[NMeL][NMeF]G[NMeL]F[NMeV]TD[NMeF][NMeF]A-Piperidide; lactam N-10) |  |  | 39 | 7 |
| CC(C)C[C@@H]1NC(=O)[C@H](CC(C)C)N(C)C(=O)[C@H](C)N(C)C(=O)C[C@@H](C(=O)N2CCCCC2)NC(=O)[C@H](CC(C)C)N(C)C(=O)[C@H](Cc2ccccc2)N(C)C(=O)[C@H](C)N(C)C(=O)[C@H]([C@@H](C)O)NC(=O)[C@H](Cc2ccccc2)N(C)C1=O [DP-520] ([NMeA][NMeL]L[NMeF]T[NMeA][NMeF][NMeL]D-Piperidide; lactam N-9) | 130 | 29 |  |  |
